# Data taken from ChEMBL document CHEMBL4616633, “Citral Inhibits the Inflammatory Response and Hyperalgesia in Mice: The Role of TLR4, TLR2/Dectin-1, and CB2 Cannabinoid Receptor/ATP-Sensitive K+ Channel Pathways” (J Nat Prod, 2020).
# Calls of active or inactive are those of the source. The rule behind the calls is not given here.
# Assays:
# Mus musculus [1] = test: Inhibition of carrageenan-induced thermal allodynia in Swiss mouse at 0.5 mg/kg, sc pretreated for 1 hr followed by carrageenan-stimulation and measured after 6 hrs relative to control; format: functional
# Mus musculus [2] = test: Inhibition of zymosan-induced TLR2/Dectin-1 Signaling Pathway assessed as reduction in paw edema in Swiss mouse at 0.5 mg/kg, sc pretreated for 1 hr followed by […] and measured after 48 hrs relative to control; format: functional
# Mus musculus [3] = test: Inhibition of carrageenan-induced paw edema in Swiss mouse at 0.5 mg/kg, sc pretreated for 1 hr followed by carrageenan-stimulation and measured after 6 hrs relative to control; format: functional
# [4] = Toxicity in Swiss mouse assessed as increase in weight gain at 5 to 2000 mg/kg, po after 14 days; format: organism-based; conditions: in vivo, 336 h
# [5] = Toxicity in Swiss mouse assessed as reduction in locomotion at 1000 mg/kg, po after 14 days; format: organism-based; conditions: in vivo, 336 h
# [6] = Toxicity in Swiss mouse assessed as effect on heart weight at 5 to 2000 mg/kg, po after 14 days; format: organism-based; conditions: in vivo, 336 h
# Mus musculus [7] = test: Inhibition of carrageenan-induced thermal allodynia in Swiss mouse at 100 mg/kg, po pretreated for 1 hr followed by carrageenan-stimulation and measured after 6 hrs relative to control; format: functional
# Mus musculus [8] = test: Inhibition of carrageenan-induced paw edema in Swiss mouse at 50 mg/kg, po pretreated for 30 mins followed by carrageenan-stimulation and co-treated with CB2R antagonist AM630 and measured after 6 hrs; format: functional, organism-based
# [9] = Psychoactive effect in Swiss mouse assessed as reduction in locomotor activity by measuring change in distance travelled at 50 mg/kg, po and measured for 6 hrs; format: ADME, organism-based; conditions: in vivo
# [10] = Toxicity in Swiss mouse assessed as food consumption at 5 mg/kg, po after 14 days (reference value: 27.3%); format: organism-based; conditions: in vivo, 336 h
# Mus musculus [11] = test: Inhibition of croton oil-induced ear edema in mouse at 0.1 mg/ear administered topically pretreated for 1 hr followed by croton oil-stimulation and measured after 6 hrs relative to control; format: functional
# Mus musculus [12] = test: Inhibition of carrageenan-induced paw edema in Swiss mouse at 100 mg/kg, po pretreated for 1 hr followed by carrageenan-stimulation and measured after 6 hrs relative to control; format: functional
# Mus musculus [13] = test: Inhibition of carrageenan-induced thermal allodynia in Swiss mouse at 50 mg/kg, po pretreated for 30 mins followed by carrageenan-stimulation and co-treated with CB1R antagonist AM281 and measured after 6 hrs; format: functional, organism-based
# [14] = Toxicity in Swiss mouse assessed as food consumption at 50 mg/kg, po after 14 days (reference value: 27.3%); format: organism-based; conditions: in vivo, 336 h
# Mus musculus [15] = test: Inhibition of carrageenan-induced thermal allodynia in Swiss mouse at 300 mg/kg, po pretreated for 1 hr followed by carrageenan-stimulation and measured after 6 hrs relative to control; format: functional
# [16] = Toxicity in Swiss mouse assessed as effect on liver weight at 5 to 2000 mg/kg, po after 14 days; format: organism-based; conditions: in vivo, 336 h
# Mus musculus [17] = test: Inhibition of carrageenan-induced paw edema in Swiss mouse at 50 mg/kg, po pretreated for 30 mins followed by carrageenan-stimulation and co-treated with glibenclamide and measured after 6 hrs; format: functional, organism-based
# [18] = Toxicity in Swiss mouse assessed as food consumption at 300 mg/kg, po after 14 days (reference value: 27.3%); format: organism-based; conditions: in vivo, 336 h
# Mus musculus [19] = test: Inhibition of LPS-induced TLR4 pathway assessed as reduction in paw edema in Swiss mouse at 50 mg/kg, po pretreated for 1 hr followed by LPS-stimulation and measured after 48 hrs relative to control; format: functional
# Mus musculus [20] = test: Inhibition of carrageenan-induced paw edema in Swiss mouse at 300 mg/kg, po pretreated for 1 hr followed by carrageenan-stimulation and measured after 6 hrs relative to control; format: functional
# [21] = Toxicity in Swiss mouse assessed as water consumption at 2000 mg/kg, po after 14 days (reference value: 50.5%); format: organism-based; conditions: in vivo, 336 h
# [22] = Toxicity in Swiss mouse assessed as effect on creatinine level weight at 5 to 2000 mg/kg, po after 14 days; format: organism-based; conditions: in vivo, 336 h
# [23] = Toxicity in Swiss mouse assessed as effect on glucose level weight at 5 to 2000 mg/kg, po after 14 days; format: organism-based; conditions: in vivo, 336 h
# [24] = Toxicity in Swiss mouse assessed as water consumption at 5 mg/kg, po after 14 days (reference value: 50.5%); format: organism-based; conditions: in vivo, 336 h
# [25] = Psychoactive effect in Swiss mouse assessed as antinociceptive effect by measuring paw withdrawal latencies at 50 mg/kg, po and measured for 6 hrs; format: ADME, organism-based; conditions: in vivo
# Mus musculus [26] = test: Inhibition of croton oil-induced ear edema in mouse at 0.3 mg/ear administered topically pretreated for 1 hr followed by croton oil-stimulation and measured after 6 hrs relative to control; format: functional
# [27] = Toxicity in Swiss mouse assessed as effect on ALT level weight at 5 to 2000 mg/kg, po after 14 days; format: organism-based; conditions: in vivo, 336 h
# [28] = Toxicity in Swiss mouse assessed as effect on paradoxical breathing at 2000 mg/kg, po after 14 days; format: organism-based; conditions: in vivo, 336 h
# Mus musculus [29] = test: Inhibition of carrageenan-induced thermal allodynia in Swiss mouse at 50 mg/kg, po pretreated for 30 mins followed by carrageenan-stimulation and co-treated with CB2R antagonist AM630 and measured after 6 hrs; format: functional, organism-based
# [30] = Toxicity in Swiss mouse assessed as effect on total cholesterol level weight at 5 to 2000 mg/kg, po after 14 days; format: organism-based; conditions: in vivo, 336 h
# [31] = Toxicity in Swiss mouse assessed as reduction in locomotion at 2000 mg/kg, po after 14 days; format: organism-based; conditions: in vivo, 336 h
# [32] = Toxicity in Swiss mouse assessed as food consumption at 2000 mg/kg, po after 14 days (reference value: 27.3%); format: organism-based; conditions: in vivo, 336 h
# [33] = Toxicity in Swiss mouse assessed as effect on ALP level weight at 5 to 2000 mg/kg, po after 14 days; format: organism-based; conditions: in vivo, 336 h
# [34] = Toxicity in Swiss mouse assessed as food consumption at 1000 mg/kg, po after 14 days (reference value: 27.3%); format: organism-based; conditions: in vivo, 336 h
# [35] = Toxicity in Swiss mouse assessed as effect on AST level weight at 5 to 2000 mg/kg, po after 14 days; format: organism-based; conditions: in vivo, 336 h
# [36] = Toxicity in Swiss mouse assessed as effect on triglycerides level weight at 5 to 2000 mg/kg, po after 14 days; format: organism-based; conditions: in vivo, 336 h
# [37] = Toxicity in Swiss mouse assessed as effect on blood urea nitrogen level weight at 5 to 2000 mg/kg, po after 14 days; format: organism-based; conditions: in vivo, 336 h
# [38] = Psychoactive effect in Swiss mouse assessed as catalepsy effect at 50 mg/kg, po and measured for 6 hrs; format: ADME, organism-based; conditions: in vivo
# [39] = Toxicity in Swiss mouse assessed as effect on respiratory movement at 1000 mg/kg, po after 14 days; format: organism-based; conditions: in vivo, 336 h
# [40] = Toxicity in Swiss mouse assessed as mortality at 5 to 1000 mg/kg, po after 14 days; format: organism-based; conditions: in vivo, 336 h
# [41] = Toxicity in Swiss mouse assessed as effect on total protein level weight at 5 to 2000 mg/kg, po after 14 days; format: organism-based; conditions: in vivo, 336 h
# [42] = Toxicity in Swiss mouse assessed as water consumption at 50 mg/kg, po after 14 days (reference value: 50.5%); format: organism-based; conditions: in vivo, 336 h
# [43] = Toxicity in Swiss mouse assessed as effect on kidney weight at 5 to 2000 mg/kg, po after 14 days; format: organism-based; conditions: in vivo, 336 h
# [44] = Toxicity in Swiss mouse assessed as water consumption at 1000 mg/kg, po after 14 days (reference value: 50.5%); format: organism-based; conditions: in vivo, 336 h
# [45] = Psychoactive effect in Swiss mouse assessed as hypothermic effects at 50 mg/kg, po and measured for 6 hrs by thermometric method; format: ADME, organism-based; conditions: in vivo
# [46] = Toxicity in Swiss mouse assessed as water consumption at 300 mg/kg, po after 14 days (reference value: 50.5%); format: organism-based; conditions: in vivo, 336 h
# Mus musculus [47] = test: Inhibition of carrageenan-induced thermal allodynia in Swiss mouse at 50 mg/kg, po pretreated for 30 mins followed by carrageenan-stimulation and co-treated glibenclamide and measured after 6 hrs; format: functional, organism-based
# [48] = Toxicity in Swiss mouse assessed as effect on touch sensitivity at 2000 mg/kg, po after 14 days; format: organism-based; conditions: in vivo, 336 h
# [49] = Toxicity in Swiss mouse assessed as effect on lung weight at 5 to 2000 mg/kg, po after 14 days; format: organism-based; conditions: in vivo, 336 h
# [50] = Toxicity in Swiss mouse assessed as effect on touch sensitivity at 1000 mg/kg, po after 14 days; format: organism-based; conditions: in vivo, 336 h
# Mus musculus [51] = test: Inhibition of zymosan-induced TLR2/Dectin-1 Signaling Pathway assessed as reduction in paw edema in Swiss mouse at 50 mg/kg, po pretreated for 1 hr followed by […] and measured after 48 hrs relative to control; format: functional
# Mus musculus [52] = test: Inhibition of carrageenan-induced paw edema in Swiss mouse at 50 mg/kg, po pretreated for 30 mins followed by carrageenan-stimulation and co-treated with CB1R antagonist AM281 and measured after 6 hrs; format: functional, organism-based
# Mus musculus [53] = test: Inhibition of carrageenan-induced thermal allodynia in Swiss mouse at 50 mg/kg, po pretreated for 1 hr followed by carrageenan-stimulation and measured after 6 hrs relative to control; format: functional
# Mus musculus [54] = test: Inhibition of carrageenan-induced paw edema in Swiss mouse at 50 mg/kg, po pretreated for 1 hr followed by carrageenan-stimulation and measured after 6 hrs relative to control; format: functional
# [55] = Toxicity in Swiss mouse assessed as effect on uric acid level weight at 5 to 2000 mg/kg, po after 14 days; format: organism-based; conditions: in vivo, 336 h
structure (smiles),measurement,setting,value
C[C@@H]1C[C@H]2[C@@H]3CCC4=CC(=O)C=C[C@]4(C)[C@@]3(F)[C@@H](O)C[C@]2(C)[C@@]1(O)C(=O)CO [DEXAMETHASONE],inhibition in vivo at 0.5 mg/kg,Mus musculus [1],72%
same,inhibition in vivo at 0.5 mg/kg,Mus musculus [2],45%
same,inhibition in vivo at 0.5 mg/kg,Mus musculus [3],82%
CC(C)=CCCC(C)=CC=O (mixture of isomers),Activity,[4],Non-Toxic
same,Activity,[5],Non-Toxic
same,Activity,[6],Non-Toxic
same,inhibition in vivo at 100 mg/kg,Mus musculus [7],80%
same,inhibition,Mus musculus [8],inactive
same,Activity,[9],Non-Toxic
same,Activity,[10],31.2%
same,inhibition (INH),Mus musculus [11],22%
same,inhibition in vivo at 100 mg/kg,Mus musculus [12],70%
same,inhibition,Mus musculus [13],Active
same,Activity,[14],21.4%
same,inhibition in vivo at 300 mg/kg,Mus musculus [15],62%
same,Activity,[16],Non-Toxic
same,inhibition,Mus musculus [17],inactive
same,Activity,[18],28.1%
same,inhibition in vivo at 50 mg/kg,Mus musculus [19],70%
same,inhibition in vivo at 300 mg/kg,Mus musculus [20],66%
same,Activity,[21],15.6%
same,Activity,[22],Non-Toxic
same,Activity,[23],Non-Toxic
same,Activity,[24],44.4%
same,Activity,[25],Non-Toxic
same,inhibition (INH),Mus musculus [26],83%
same,Activity,[27],Non-Toxic
same,Activity,[28],Non-Toxic
same,inhibition,Mus musculus [29],inactive
same,Activity,[30],Non-Toxic
same,Activity,[31],Non-Toxic
same,Activity,[32],8.8%
same,Activity,[33],Non-Toxic
same,Activity,[34],28.1%
same,Activity,[35],Non-Toxic
same,Activity,[36],Non-Toxic
same,Activity,[37],Non-Toxic
same,Activity,[38],Non-Toxic
same,Activity,[39],Non-Toxic
same,Activity,[40],Non-Toxic
same,Activity,[41],Non-Toxic
same,Activity,[42],37.5%
same,Activity,[43],Non-Toxic
same,Activity,[44],40%
same,Activity,[45],Non-Toxic
same,Activity,[46],36%
same,inhibition,Mus musculus [47],inactive
same,Activity,[48],Non-Toxic
same,Activity,[49],Non-Toxic
same,Activity,[50],Non-Toxic
same,inhibition in vivo at 50 mg/kg,Mus musculus [51],45%
same,inhibition,Mus musculus [52],Active
same,inhibition in vivo at 50 mg/kg,Mus musculus [53],62%
same,inhibition in vivo at 50 mg/kg,Mus musculus [54],57%
same,Activity,[55],Non-Toxic
